ChEMBL document CHEMBL1138669, “Dipeptidyl peptidase IV inhibitors for the treatment of diabetes” (J Med Chem, 2004)

Assay: Half life was determined
Format: ADME
Details: rat

half-life: 50 min
Compound: N#Cc1ccc(NCCNCC(=O)N2CCC[C@H]2C#N)nc1
